Data from patent US8933195B2, “Histone deacetylase inhibitors and synthetic method thereof and use thereof in manufacture of medicaments” (Nanjing Yoko Biomedical R & D Ltd., priority 2011, dated 2015).

What was measured:
HDAC1 = HDAC1 (Homo sapiens, UniProt Q13547); assay: Measurement of biochemical activities of HDAC (fluorescently-labeled acetylated lysine substrate); details: read-out: IC50 HDAC1
Procedure: (§1) 1. Measurement principles: the measurement of biochemical activities of compounds is determined according to the degree of the compounds inhibiting the deacylation of HDAC enzyme. After the fluorescently-labeled substrate containing acetylated lysine side chain reacts with the HDAC enzyme, the fluorogenic substrate is deacetylated. After the deacetylated fluorescently-labeled substrate is cracked by the enzyme, a fluorescent substance is released. The fluorescent substance generates emitting light of 460 nm under the excitation of light of 360 nm.
(§2) 2. Detailed steps: the substrate of HDAC is diluted to […] (the reaction concentration is […]) with a reaction buffer. HDAC enzyme is diluted to a proper concentration. The compounds to be detected in different concentrations are added. The mixture reacts for 30 min at 37. Then the developer with the same volume and twice concentration of the substrate is added into the mixture. The mixture is incubated for 15 min at room temperature. Finally, the reading is measured with a micro plate scanner. The excitation light is 360 nm, the emitting light is 460 nm, and the data is processed with Prime 4 software.

HDAC7 = molecular target: T1, HDAC7 (Homo sapiens, UniProt Q8WUI4); assay: as above
T1 sequence (Q8WUI4 1-952): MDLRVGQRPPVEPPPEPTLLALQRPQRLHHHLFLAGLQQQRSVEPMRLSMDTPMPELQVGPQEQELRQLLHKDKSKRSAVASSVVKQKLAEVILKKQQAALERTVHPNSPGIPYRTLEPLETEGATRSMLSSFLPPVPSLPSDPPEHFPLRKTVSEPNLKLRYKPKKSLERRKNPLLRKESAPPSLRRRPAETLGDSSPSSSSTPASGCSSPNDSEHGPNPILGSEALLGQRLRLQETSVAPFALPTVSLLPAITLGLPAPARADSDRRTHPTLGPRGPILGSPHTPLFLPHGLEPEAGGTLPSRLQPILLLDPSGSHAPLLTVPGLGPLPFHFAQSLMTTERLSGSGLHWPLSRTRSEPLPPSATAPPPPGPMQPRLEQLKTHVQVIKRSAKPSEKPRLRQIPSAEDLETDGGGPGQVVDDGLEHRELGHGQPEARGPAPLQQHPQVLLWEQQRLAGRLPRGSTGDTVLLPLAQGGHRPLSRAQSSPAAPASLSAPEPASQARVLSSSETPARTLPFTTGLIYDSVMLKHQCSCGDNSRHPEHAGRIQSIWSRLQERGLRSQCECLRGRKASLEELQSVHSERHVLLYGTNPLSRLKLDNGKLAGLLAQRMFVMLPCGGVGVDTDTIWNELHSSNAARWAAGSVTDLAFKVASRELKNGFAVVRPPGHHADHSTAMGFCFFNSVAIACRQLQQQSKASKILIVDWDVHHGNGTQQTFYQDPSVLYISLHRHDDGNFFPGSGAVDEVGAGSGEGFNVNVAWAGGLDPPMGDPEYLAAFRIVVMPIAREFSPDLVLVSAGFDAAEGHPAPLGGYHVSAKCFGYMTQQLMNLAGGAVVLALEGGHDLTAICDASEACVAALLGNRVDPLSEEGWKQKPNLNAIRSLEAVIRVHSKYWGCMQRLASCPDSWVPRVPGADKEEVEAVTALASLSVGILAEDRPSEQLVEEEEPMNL
Procedure: as §1, §2

[1] = tested on: U937 (human leukemia cells); assay: MTT cancer cell growth inhibition; type: cell-based; details: U-937, 72 h
Excerpt: (§3) 1. Experimental principles: the inhibition of cancer cell growth with compounds is detected by an MTT method. The principle of the MTT method is as follows: yellow thiazolyl blue may penetrate through cell membranes and enter into cells, succinate dehydrogenase in living cell mitochondria may reduce exogenous MTT into water-insoluble ianthinus acicular Formazan crystals which deposit in the cells, the crystals can be dissolved with dimethyl sulfoxide (DMSO), the optical density of the crystals is detected with an enzyme-linked immunometric meter at the wavelength of 490 nm/570 nm, and the number of cells can be indirectly reflected.
(§4) 2. Experimental materials: the used cancer cell lines are Hela (human cervical cancer cells), MCF-7 (human breast cancer cells), BGC-823 (human gastric cancer cells), A549 (human lung cancer cells), HT1080 (human fibrosarcoma cells), A431 (human epidermal squamous cell carcinoma cells), HUVEC (human umbilical vein endothelial cells), DU145 (human prostate cancer cells), K562 (human leukemia cells), U937 (human leukemia cells), Pac-1 (human pancreatic cancer cells), and MOLT-4 (human acute lymphoblastic leukemia cells), which are cultured with a DMEM+10% FBS culture medium or a 1640+10% FBS culture medium, respectively.
(§5) Experimental groups: 190 μl cell suspension+10 μl pharmaceuticals in different concentrations (the final concentration is 10^−5-10^−10M)
(§6) Negative control group: 190 μl cell suspension+10 μl 2% DMSO (the final concentration of DMSO is 0.1%)
(§7) a) Cells are inoculated on a 96-pore plate, with 1500 cells and 190 μl for each hole, and cultured overnight in a 5% CO2 incubator at 37.
(§8) b) 10 μl of different pharmaceuticals is added into each hole the next day, with the final concentration of the pharmaceuticals of 10^−5-10^−10M and three parallel holes, and incubated for 72 h in a 5% CO2 incubator at 37.
(§9) c) 20 μl of 5 mg/mL MTT is added into each hole, and incubated for 4 h in a 5% CO2 incubator at 37.
(§10) d) Supernatant is removed. 100 μl of DMSO is added into each hole and vibrated.
(§11) e) The reading is 570 nm. The cell survival rate is calculated.

[2] = tested on: BGC-823 (human gastric cancer cells); assay: MTT cancer cell growth inhibition; type: cell-based; details: 72 h, read-out: GI50 BGC823
Excerpt: as §3, §4, §5, §6, §7, §8, §9, §10, §11

[3] = tested on: A549 (human lung cancer cells); assay: MTT cancer cell growth inhibition; type: cell-based; details: 72 h
Excerpt: as §3, §4, §5, §6, §7, §8, §9, §10, §11

[4] = tested on: MCF-7 (human breast cancer cells); assay: MTT cancer cell growth inhibition; type: cell-based; details: MCF7, 72 h
Excerpt: as §3, §4, §5, §6, §7, §8, §9, §10, §11

[5] = tested on: DU145 (human prostate cancer cells); assay: MTT cancer cell growth inhibition; type: cell-based; details: DU-145, 72 h
Excerpt: as §3, §4, §5, §6, §7, §8, §9, §10, §11

PANC-1 = assay: MTT cancer cell growth inhibition; type: cell-based; details: Homo sapiens, 72 h
Excerpt: as §3, §4, §5, §6, §7, §8, §9, §10, §11

[6] = tested on: HT1080 (human fibrosarcoma cells); assay: MTT cancer cell growth inhibition; type: cell-based; details: HT-1080, 72 h
Excerpt: as §3, §4, §5, §6, §7, §8, §9, §10, §11

[7] = tested on: Hela (human cervical cancer cells); assay: MTT cancer cell growth inhibition; type: cell-based; details: 72 h
Excerpt: as §3, §4, §5, §6, §7, §8, §9, §10, §11

[8] = tested on: MOLT-4 (human acute lymphoblastic leukemia cells); assay: MTT cancer cell growth inhibition; type: cell-based; details: 72 h
Excerpt: as §3, §4, §5, §6, §7, §8, §9, §10, §11

Incap = assay: MTT cancer cell growth inhibition; type: cell-based; details: 72 h

HDAC1, sequence (Q13547 whole entry, species assumed): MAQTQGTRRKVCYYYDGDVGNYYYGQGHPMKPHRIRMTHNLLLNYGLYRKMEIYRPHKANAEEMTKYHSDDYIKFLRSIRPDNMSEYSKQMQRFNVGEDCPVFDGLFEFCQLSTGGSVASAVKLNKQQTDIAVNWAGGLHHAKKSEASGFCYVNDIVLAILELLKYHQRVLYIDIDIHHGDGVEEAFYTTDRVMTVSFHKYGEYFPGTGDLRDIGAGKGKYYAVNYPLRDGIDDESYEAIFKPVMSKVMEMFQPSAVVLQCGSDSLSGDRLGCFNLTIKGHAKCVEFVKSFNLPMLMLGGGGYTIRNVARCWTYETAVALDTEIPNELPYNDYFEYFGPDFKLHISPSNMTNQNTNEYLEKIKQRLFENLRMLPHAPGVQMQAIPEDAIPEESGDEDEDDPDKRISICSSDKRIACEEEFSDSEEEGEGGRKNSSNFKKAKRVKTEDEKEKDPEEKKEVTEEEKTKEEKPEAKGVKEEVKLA

C/C=C1\NC(=O)c2csc(n2)[C@H](C)NC(=O)C[C@@H](/C=C/CCSC(=O)CCCCCCC)OC(=O)[C@H](C(C)C)NC1=O [Compound 4-2]
IC50 (HDAC1): < 100 nM
IC50 HDAC7 (HDAC7): no activity
GI50 [1]: 5010 nM
GI50 [2]: 2120 nM
GI50 [3]: 25100 nM
GI50 [4]: 150 nM
GI50 [5]: 4020 nM
GI50 (PANC-1): 1030 nM
GI50 [6]: 30 nM
GI50 [7]: 1230 nM
GI50 [8]: 2000 nM
GI50 (Incap): 1230 nM

C/C=C1\NC(=O)c2csc(n2)[C@H](Cc2ccccc2)NC(=O)C[C@@H](/C=C/CCSC(=O)CCCCCCC)OC(=O)[C@H](C(C)C)NC1=O [Compound 4-3]
IC50 (HDAC1): < 10000 nM
IC50 HDAC7 (HDAC7): no activity
GI50 [1]: 650 nM
GI50 [2]: 7120 nM
GI50 [3]: 4660 nM
GI50 [4]: 2550 nM
GI50 [5]: 140 nM
GI50 (PANC-1): 10 nM
GI50 [6]: 3030 nM
GI50 [7]: 1060 nM
GI50 [8]: 30 nM
GI50 (Incap): 1020 nM

C/C=C1\NC(=O)c2csc(n2)[C@H](Cc2ccc(O)cc2)NC(=O)C[C@@H](/C=C/CCSC(=O)CCCCCCC)OC(=O)[C@H](C(C)C)NC1=O [Compound 4-4]
IC50 (HDAC1): < 10000 nM
IC50 HDAC7 (HDAC7): no activity
GI50 [1]: 10200 nM
GI50 [2]: 1020 nM
GI50 [3]: 10 nM
GI50 [4]: 6 nM
GI50 [5]: 2100 nM
GI50 (PANC-1): 3010 nM
GI50 [6]: 650 nM
GI50 [7]: 1000 nM
GI50 [8]: 50 nM
GI50 (Incap): 4260 nM

C/C=C1\NC(=O)c2csc(n2)CNC(=O)C[C@@H](/C=C/CCSC(=O)CCCCCCC)OC(=O)[C@H](C)N(C)C1=O [Compound 5-1]
IC50 (HDAC1): < 10000 nM
IC50 HDAC7 (HDAC7): no activity
GI50 [1]: 340 nM
GI50 [2]: 2100 nM
GI50 [3]: 21300 nM
GI50 [4]: 3650 nM
GI50 [5]: 650 nM
GI50 (PANC-1): 650 nM
GI50 [6]: 19600 nM
GI50 [7]: 3050 nM
GI50 [8]: 10 nM
GI50 (Incap): 73500 nM

C/C=C1\NC(=O)c2csc(n2)CNC(=O)C[C@@H](/C=C/CCSC(=O)CCCCCCC)OC(=O)[C@H](C(C)C)N(C)C1=O [Compound 5-2]
IC50 (HDAC1): < 10000 nM
IC50 HDAC7 (HDAC7): no activity
GI50 [1]: 20 nM
GI50 [2]: 1300 nM
GI50 [3]: 240 nM
GI50 [4]: 690 nM
GI50 [5]: 6410 nM
GI50 (PANC-1): 21400 nM
GI50 [6]: 1050 nM
GI50 [7]: 350 nM
GI50 [8]: 10300 nM
GI50 (Incap): 5030 nM

C/C=C1\NC(=O)c2csc(n2)CNC(=O)C[C@@H](/C=C/CCS)OC(=O)[C@H](C(C)C)NC1=O [Compound 6-1]
IC50 (HDAC1): < 100 nM
IC50 HDAC7 (HDAC7): no activity
GI50 [1]: 5 nM
GI50 [2]: 360 nM
GI50 [3]: 100 nM
GI50 [4]: 59 nM
GI50 [5]: 34 nM
GI50 (PANC-1): 230 nM
GI50 [6]: 50 nM
GI50 [7]: 600 nM
GI50 [8]: 650 nM
GI50 (Incap): 42 nM

C/C=C1\NC(=O)c2csc(n2)CNC(=O)C[C@@H](/C=C/CCSC(C)=O)OC(=O)[C@H](C(C)C)NC1=O [Compound 6-2]
IC50 (HDAC1): < 10000 nM
IC50 HDAC7 (HDAC7): no activity
GI50 [1]: 2650 nM
GI50 [2]: 4600 nM
GI50 [3]: 15600 nM
GI50 [4]: 59600 nM
GI50 [5]: 1600 nM
GI50 (PANC-1): 680 nM
GI50 [6]: 41000 nM
GI50 [7]: 73500 nM
GI50 [8]: 400 nM
GI50 (Incap): 900 nM

C/C=C1\NC(=O)c2csc(n2)CNC(=O)C[C@@H](/C=C/CCSC(=O)CCCCCCCCCCCC)OC(=O)[C@H](C(C)C)NC1=O [Compound 6-3]
IC50 (HDAC1): < 10000 nM
IC50 HDAC7 (HDAC7): no activity
GI50 [1]: 10100 nM
GI50 [2]: 5000 nM
GI50 [3]: 41000 nM
GI50 [4]: 56600 nM
GI50 [5]: 13600 nM
GI50 (PANC-1): 890 nM
GI50 [6]: 25000 nM
GI50 [7]: 45000 nM
GI50 [8]: 3640 nM
GI50 (Incap): 12000 nM

C/C=C1\NC(=O)c2csc(n2)CNC(=O)C[C@@H](/C=C/CCSC(=O)Cc2ccccc2)OC(=O)[C@H](C(C)C)NC1=O [Compound 6-4]
IC50 (HDAC1): < 10000 nM
IC50 HDAC7 (HDAC7): no activity
GI50 [1]: 6350 nM
GI50 [2]: 2550 nM
GI50 [3]: 4600 nM
GI50 [4]: 690 nM
GI50 [5]: 420 nM
GI50 (PANC-1): 1250 nM
GI50 [6]: 1330 nM
GI50 [7]: 500 nM
GI50 [8]: 2650 nM
GI50 (Incap): 630 nM
